Experimental data: patent US20250289814A1, “COMPOUNDS AS PARP1 INHIBITIORS” (NINGBO NEWBAY TECHNOLOGY DEVELOPMENT CO., LTD., priority 2022, published 2025)
Where two headings read alike, the source gives them in different places.

Tests used:
DLD1-BRCA2−/− cells = assay: Cell proliferation assay in DLD1-BRCA2−/− cell lines (CellTiter-Glo, 7 days); format: cell-based
Method: BRCA2 (−/−) cells cultured in RPMI 1640+10% FBS were harvested and diluted to a density of 1×10^4 cells/mL and 2×10^4 cells/mL, respectively. Cells (40 μL/well) were seeded into 384-well cell culture plates. Plates were covered and incubated at 37° C., 5% CO2 overnight prior to the addition of test compounds or vehicle. The plates were then incubated at 37° C., 5% CO2 for 7 days. On day 8, the plates were removed from incubator and equilibrated at room temperature for 15 minutes. CellTiter-Glo (40 μL, at 1:1 to culture medium) is added into each well and the plates were placed at room temperature for 30 min. Luminescence was measured using an Envision plate reader. The resultant data were analysed as follows; where LC is culture medium without cells:
% inhibition values for different test compound concentrations were calculated and fitted to a four parameter logistic plot in order to determine the IC50 value using XLfit

Caco-2 cell monolayers = assay: Caco2 (A-B/B-A) permeability; format: in vitro ADME
Method: (§1) The apical-to-basolateral (A-B) and basolateral-to-apical (B-A) transport of 5 μM test compounds in HBSS (10 mM HEPES, pH 7.4) was measured across Caco-2 cell monolayers (cells sourced from American Type Culture Collection, Manassas, Virgina). Duplicate incubations were performed at approximately 37° C. for 120 min, with functionality of the test system confirmed using 5 μM propranolol and digoxin as control compounds. Aliquots (50 μL) from both apical and basolateral wells were transferred into two fresh 96-well plates and quenched with acetonitrile solution containing analytical internal standards. Samples were vortexed mixed, centrifuged and a 100 μL aliquot of the resulting supernatant mixed with an equal volume of ultra-pure water prior to analysis by UPLC-MS/MS. The concentrations of test compound and control compounds in the incubation medium of donor and receiver compartments at the beginning and the end of the incubation period were used to calculate the apparent permeability (Papp) from A-B and B-A directions. The efflux ratio (ER) was expressed as PappB-A/PappA-B. The integrity of the cell monolayers after 2 hours incubation was confirmed using the marker reagent Lucifer yellow.

[1] = target: Recombinant full length PARP1 (Homo sapiens (Human), UniProt P09874); assay: FP assay PARP1 (fluorescence anisotropy probe displacement); format: binding; settings: 20 nM PARP1, 8 nM fluorescent probe, 4 h, room temperature
Method: (§2) FP experiments were carried out at room temperature using no-binding black 384-well microplates. Recombinant full length PARP1 and PARP2 proteins produced in house were diluted to 20 nM and 60 nM, respectively, with assay buffer (50 mM Tris pH 8, 0.001% Triton X100, 10 mM MgCl2, and 150 mM NaCl) and incubated for 4 h with an equivalent volume of the 8 nM fluorescent probe diluted with assay buffer. Fluorescence anisotropy of the probe when bound to the proteins was measured in the presence of test compounds or solvent control and the effect on anisotropy determined. Polarization values were read using an Envision plate reader using excitation and emission wavelengths of 590 and 630 nm, respectively. All FP values are expressed as mP units. Inhibition ratio was calculated using readout (mP) following the equation as below: […]
(§3) % inhibition values for different test compound concentrations were calculated and fitted to a four parameter logistic plot in order to determine the IC50 value using XLfit.

[2] = target: Recombinant full length PARP2 (Homo sapiens (Human), UniProt Q9UGN5); assay: FP assay PARP2 (fluorescence anisotropy probe displacement); format: binding; settings: 60 nM PARP2, 8 nM fluorescent probe, 4 h, room temperature
Method: as §2, §3

[3] = Caco2 (A-B/B-A) permeability; format: in vitro ADME; settings: human; for efflux ratio at 120 min, 5 μM: Caco-2, pH 7.4, PappB-A/PappA-B, read-out: Caco2 efflux ratio (ER); for Papp A→B at 120 min, 5 μM: Caco-2, pH 7.4, apical-to-basolateral, read-out: Caco2 A-B apparent permeability (Papp); for Papp A→B at 120 min, 5 μM / Papp B→A at 120 min, 5 μM: HBSS pH 7.4, 120 min, 37° C.; for Papp B→A at 120 min, 5 μM: Caco-2, pH 7.4, basolateral-to-apical, read-out: Caco2 B-A apparent permeability (Papp)
Method: as §1

Sequence of Recombinant full length PARP1 (P09874 whole entry): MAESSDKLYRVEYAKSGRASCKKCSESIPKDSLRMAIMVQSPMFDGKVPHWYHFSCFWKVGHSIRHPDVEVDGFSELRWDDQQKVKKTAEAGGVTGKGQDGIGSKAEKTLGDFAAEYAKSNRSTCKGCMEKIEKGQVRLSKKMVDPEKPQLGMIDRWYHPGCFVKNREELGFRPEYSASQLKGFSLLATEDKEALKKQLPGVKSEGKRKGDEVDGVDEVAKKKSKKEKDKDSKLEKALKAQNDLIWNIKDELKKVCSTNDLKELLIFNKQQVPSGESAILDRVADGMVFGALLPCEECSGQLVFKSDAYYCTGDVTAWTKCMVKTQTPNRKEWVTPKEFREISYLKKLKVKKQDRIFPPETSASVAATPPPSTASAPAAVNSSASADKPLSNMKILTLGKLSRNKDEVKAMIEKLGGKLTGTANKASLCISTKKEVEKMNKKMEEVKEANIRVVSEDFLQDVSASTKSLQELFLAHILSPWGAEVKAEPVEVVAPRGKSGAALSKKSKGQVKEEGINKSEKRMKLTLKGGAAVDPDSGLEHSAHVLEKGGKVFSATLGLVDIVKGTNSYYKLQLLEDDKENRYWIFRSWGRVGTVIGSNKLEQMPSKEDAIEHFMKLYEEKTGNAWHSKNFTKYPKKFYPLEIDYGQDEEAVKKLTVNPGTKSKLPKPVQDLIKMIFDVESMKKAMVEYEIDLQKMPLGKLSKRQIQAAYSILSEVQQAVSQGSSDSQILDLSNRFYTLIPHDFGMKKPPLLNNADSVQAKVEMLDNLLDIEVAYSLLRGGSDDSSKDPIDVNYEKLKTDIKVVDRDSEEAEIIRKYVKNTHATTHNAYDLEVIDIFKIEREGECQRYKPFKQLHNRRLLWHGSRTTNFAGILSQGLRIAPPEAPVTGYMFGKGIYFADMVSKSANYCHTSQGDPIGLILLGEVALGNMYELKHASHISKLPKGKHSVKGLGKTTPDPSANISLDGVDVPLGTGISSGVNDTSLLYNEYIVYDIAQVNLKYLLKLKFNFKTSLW
Sequence of Recombinant full length PARP2 (Q9UGN5 whole entry): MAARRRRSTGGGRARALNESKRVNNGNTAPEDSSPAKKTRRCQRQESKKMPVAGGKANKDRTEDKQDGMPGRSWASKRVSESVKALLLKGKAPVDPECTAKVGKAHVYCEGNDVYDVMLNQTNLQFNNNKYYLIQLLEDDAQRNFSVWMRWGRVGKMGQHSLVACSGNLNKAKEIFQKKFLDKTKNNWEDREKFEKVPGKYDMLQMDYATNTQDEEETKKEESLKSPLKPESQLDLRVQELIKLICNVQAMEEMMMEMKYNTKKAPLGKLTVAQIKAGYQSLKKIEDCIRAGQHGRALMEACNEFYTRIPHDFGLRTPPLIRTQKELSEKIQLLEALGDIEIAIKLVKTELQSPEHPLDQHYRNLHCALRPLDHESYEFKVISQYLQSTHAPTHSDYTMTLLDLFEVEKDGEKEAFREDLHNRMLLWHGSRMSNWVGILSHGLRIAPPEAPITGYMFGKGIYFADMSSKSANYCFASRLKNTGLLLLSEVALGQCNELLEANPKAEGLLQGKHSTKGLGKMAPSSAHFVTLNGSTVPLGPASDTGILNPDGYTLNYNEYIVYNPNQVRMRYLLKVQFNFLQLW

Row | IC50 (DLD1-BRCA2−/− cells) | Caco2 efflux ratio (ER) (Caco-2 cell monolayers; PappB-A/PappA-B) | Caco2 A-B apparent permeability (Papp) (Caco-2 cell monolayers; apical-to-basolateral, 5 μM, HBSS pH 7.4, 120 min, 37° C.) | Caco2 B-A apparent permeability (Papp) (Caco-2 cell monolayers; basolateral-to-apical, 5 μM, HBSS pH 7.4, 120 min, 37° C.) | IC50 [1] | IC50 [2] | IC50 (DLD1-BRCA2−/− cells; Homo sapiens, DLD-1, 168 h) | efflux ratio at 120 min, 5 μM [3] | Papp A→B at 120 min, 5 μM [3] | Papp B→A at 120 min, 5 μM [3] | SMILES
1 | – | – | – | – | 35.2 nM | > 10000 nM | 18.9 nM | 2.09 | 14.9 ×10⁻⁶ cm/s | 31.2 ×10⁻⁶ cm/s | CCc1nc2ccc([C@H](C)N3CC(Oc4ccc(C(=O)NC)nc4)C3)cc2[nH]c1=O (single isomer, unassigned) [Compound 52, (enantiomer 1 or 2)-5-((1-(1-(2-ethyl-3-oxo-3,4-dihydroquinoxalin-6-yl)ethyl)azetidin-3-yl)oxy)-N-methylpicolinamide]
2 | 69.3 nM | – | – | – | 6.4 nM | 365 nM | – | 10.5 | 4.18 ×10⁻⁶ cm/s | 43.9 ×10⁻⁶ cm/s | CCc1cc2ncc([C@@H](C)N3CC(Oc4ccc(C(=O)NC)nc4F)C3)cc2[nH]c1=O (single isomer, unassigned; enantiomer 1) [Compound 45, (enantiomer 1)-5-((1-(1-(7-ethyl-6-oxo-5,6-dihydro-1,5-naphthyridin-3-yl)ethyl)azetidin-3-yl)oxy)-6-fluoro-N-methylpicolinamide]
3 | – | – | – | – | 14.5 nM | > 10000 nM | 5.7 nM | 8.64 | 3.46 ×10⁻⁶ cm/s | 29.9 ×10⁻⁶ cm/s | CCc1cc2cnc([C@H](C)N3CC(Oc4ccc(C(=O)NC)nc4F)C3)cc2[nH]c1=O (single isomer, unassigned; enantiomer 1) [Compound 49, (enantiomer 1)-5-((1-(1-(3-ethyl-2-oxo-1,2-dihydro-1,6-naphthyridin-7-yl)ethyl)azetidin-3-yl)oxy)-6-fluoro-N-methylpicolinamide]
4 | – | – | – | – | 3.8 nM | 9610 nM | 15.9 nM | 6.4 | 5.4 ×10⁻⁶ cm/s | 34.6 ×10⁻⁶ cm/s | CCc1cc2cnc(C(C)N3CC(Oc4ccc(C(=O)NC)nc4)C3)cc2[nH]c1=O (stereo not shown) [Compound 51, 5-((1-(1-(3-ethyl-2-oxo-1,2-dihydro-1,6-naphthyridin-7-yl)ethyl)azetidin-3-yl)oxy)-N-methylpicolinamide]
5 | – | – | – | – | 44.7 nM | > 10000 nM | > 1000 nM | – | – | – | CCc1cc2ncc(CN3CC[C@H](Oc4ccc(C(=O)NC)nc4)C3)cc2[nH]c1=O [Compound 58, (S)-5-((1-((7-ethyl-6-oxo-5,6-dihydro-1,5-naphthyridin-3-yl)methyl)pyrrolidin-3-yl)oxy)-N-methylpicolinamide]
6 | – | – | – | – | 7.03 nM | > 10000 nM | 5.4 nM | 7.96 | 5.35 ×10⁻⁶ cm/s | 42.5 ×10⁻⁶ cm/s | CCc1cc2cnc(CN3CC[C@@H](Oc4ccc(C(=O)NC)nc4)C3)cc2[nH]c1=O [Compound 63, (R)-5-((1-((3-ethyl-2-oxo-1,2-dihydro-1,6-naphthyridin-7-yl)methyl)pyrrolidin-3-yl)oxy)-N-methylpicolinamide]

Second part, the molecule before the results:

Row | SMILES | IC50 (DLD1-BRCA2−/− cells) | Caco2 efflux ratio (ER) (Caco-2 cell monolayers; PappB-A/PappA-B) | Caco2 A-B apparent permeability (Papp) (Caco-2 cell monolayers; apical-to-basolateral, 5 μM, HBSS pH 7.4, 120 min, 37° C.) | Caco2 B-A apparent permeability (Papp) (Caco-2 cell monolayers; basolateral-to-apical, 5 μM, HBSS pH 7.4, 120 min, 37° C.) | IC50 [1] | IC50 [2] | IC50 (DLD1-BRCA2−/− cells; Homo sapiens, DLD-1, 168 h) | efflux ratio at 120 min, 5 μM [3] | Papp A→B at 120 min, 5 μM [3] | Papp B→A at 120 min, 5 μM [3]
7 | CCc1cc2ncc([C@H](C)N3CC[C@@H](Oc4ccc(C(=O)NC)nc4)C3)cc2[nH]c1=O (single isomer, unassigned) [Compound 13, 5-(((R)-1-((enantiomer 1 or 2)-1-(7-ethyl-6-oxo-5,6-dihydro-1,5-naphthyridin-3-yl)ethyl)pyrrolidin-3-yl)oxy)-N-methylpicolinamide] | 29.5 nM | (ER = 7.91) | 3.85 10*−6 cm/s | 30.43 10*−6 cm/s | – | – | – | – | – | –
8 | CCc1cc2ncc(CN3CC(Oc4cnc(C(=O)NC)c(F)c4)C3)cc2[nH]c1=O [Compound 2, 5-((1-((7-ethyl-6-oxo-5,6-dihydro-1,5-naphthyridin-3-yl)methyl)azetidin-3-yl)oxy)-3-fluoro-N-methylpicolinamide] | – | – | – | – | 7.7 nM | > 10000 nM | 288 nM | 19.2 | 1.47 ×10⁻⁶ cm/s | 28.3 ×10⁻⁶ cm/s
9 | CNC(=O)c1ccc(OC2CN(Cc3cnc4cc(C5CC5)c(=O)[nH]c4c3)C2)cn1 [Compound 6, 5-((1-((7-cyclopropyl-6-oxo-5,6-dihydro-1,5-naphthyridin-3-yl)methyl)azetidin-3-yl)oxy)-N-methylpicolinamide] | – | – | – | – | 7 nM | > 10000 nM | 62.1 nM | 9.29 | 3.32 ×10⁻⁶ cm/s | 30.8 ×10⁻⁶ cm/s
10 | CCc1cc2ncc(CN3C[C@@H](F)[C@@H](Oc4ccc(C(=O)NC)nc4)C3)cc2[nH]c1=O [Compound 8, 5-(((3S, 4R)-1-((7-ethyl-6-oxo-5,6-dihydro-1,5-naphthyridin-3-yl)methyl)-4-fluoropyrrolidin-3-yl)oxy)-N-methylpicolinamide] | – | – | – | – | 3.8 nM | > 10000 nM | 51.1 nM | 11.8 | 2.45 ×10⁻⁶ cm/s | 28.8 ×10⁻⁶ cm/s
11 | CCc1cc2ncc(CN3CCC(Nc4ccc(C(=O)NC)nc4)C3)cc2[nH]c1=O (stereo not shown) [Compound 10, 5-((1-((7-ethyl-6-oxo-5,6-dihydro-1,5-naphthyridin-3-yl)methyl)pyrrolidin-3-yl)amino)-N-methylpicolinamide] | – | – | – | – | 3.1 nM | > 10000 nM | 11.5 nM | 39.1 | 0.57 ×10⁻⁶ cm/s | 22.4 ×10⁻⁶ cm/s
12 | CCc1cc2ncc(CN3CC[C@@H](Oc4ccc(C(=O)NC)nc4)C3)cc2[nH]c1=O [Compound 11, (R)-5-((1-((7-ethyl-6-oxo-5,6-dihydro-1,5-naphthyridin-3-yl)methyl)pyrrolidin-3-yl)oxy)-N-methylpicolinamide] | – | – | – | – | 4.8 nM | > 10000 nM | 6 nM | 9.69 | 4.13 ×10⁻⁶ cm/s | 40 ×10⁻⁶ cm/s
13 | CCc1nc2ccc(C(C)N3CC(Oc4ccc(C(=O)NC)nc4)C3)cc2[nH]c1=O (stereo not shown) [Compound 20, 5-((1-(1-(2-ethyl-3-oxo-3,4-dihydroquinoxalin-6-yl)ethyl)azetidin-3-yl)oxy)-N-methylpicolinamide] | – | – | – | – | 14.8 nM | > 10000 nM | 38.2 nM | 2.16 | 11.8 ×10⁻⁶ cm/s | 25.4 ×10⁻⁶ cm/s
14 | CCc1nc2ccc(CN3CC[C@@H](Oc4ccc(C(=O)NC)nc4)C3)cc2[nH]c1=O [Compound 28, (R)-5-((1-((2-ethyl-3-oxo-3,4-dihydroquinoxalin-6-yl)methyl)pyrrolidin-3-yl)oxy)-N-methylpicolinamide] | – | – | – | – | 9.3 nM | > 10000 nM | 57.6 nM | 5.03 | 6.32 ×10⁻⁶ cm/s | 31.8 ×10⁻⁶ cm/s
